Measured values as given in patent US20090074815A1, “Immunomodulator Compounds as Vaccine Enhancers” (SCICLONE PHARMACEUTICALS, INC., priority 2005, published 2009).
Read-outs that look alike come from different tables or passages of the source. Marks after values point to notes of the source that are not given here.

Experiments:
[1] = tested on: IL-2 production by OvA-stimulated splenocytes; test: OvA-stimulated production of IL-2 by splenocytes of OvA-immunized mice
Description: The OvA was administered subcutaneously to the crest in a volume of 200 μl. Mice were immunized on day 1 with OvA in complete Freund's adjuvant (CFA; Sigma) and on day 15 with the antigen in incomplete Freund's adjuvant (IFA; Sigma). The immune response was analyzed on day 29. Mice were also immunized with 10 μg/mouse of OvA using Alum as an adjuvant.
Thymuses and spleens from mice of each treatment group were pooled, and then minced with scissors. The minced tissues were suspended in sterile PBS to form cell suspensions, filtered through a double gauze layer and centrifuged. Cells were washed twice with PBS, re-suspended in RPMI-1640 (Sigma) with 2.0 mM of L-glutamine, 50 μM of mercaptoethanol, and 10 μg/ml of gentamycin (complete medium); and cell counts were made. (The splenocyte suspension was washed with a 0.86% solution of NH4Cl to pre-lyse erthrocytes.)
Assessment of Mitogen- and Antigen-Induced Production of Cytokines: Thymic cells (1×10^6/well) in complete medium with 2% FCS were stimulated with ConA (0, 1, and 2 μg/ml). Splenocytes (1×10^6/well) in complete medium with 5% FCS were stimulated with ConA (0, 1, and 5 μg/ml) and with OvA (0-100 μg/ml). […] Supernatants from OvA-stimulated cultures were collected after 72 hours. Supernatants from both cultures were frozen, and kept at 20° C. Concentrations of IL-2, IL-4, IL-10, IL-12R40 and IFNγ in the supernatants were determined by solid-phase EIA with EIA Expansion Kits, available from BD Biosciences (formerly Pharmingen), in accordance with the manufacturer's instructions.

HBsAg = assay type: in vivo, human; conditions: for Antibodies to HBsAg not detected, % / Antibodies to HBsAg not detected, Abs / Protective titer against HBsAg (>10 mMU/mL), % / Protective titer against HBsAg (>10 mMU/mL), Abs: one month after the end of vaccination; for concentration of antibodies to HBsAg in the blood: one month after immunization
lymphocytes = assay type: in vivo, human
[2] = OvA/Alum, 1.0 μg/kg i/p, OvA 25 μg/ml
[3] = OvA/Alum, 1.0 μg/kg i/p, OvA 100 μg/ml
[4] = OvA/FA, 0.1 μg/kg i/p, OvA 1 μg/ml
[5] = OvA/FA, 0.1 μg/kg i/p, OvA 10 μg/ml
[6] = OvA/FA, 0.1 μg/kg i/p, OvA 25 μg/ml
[7] = OvA/FA, 0.1 μg/kg i/p, OvA 100 μg/ml
[8] = OvA/FA, 1.0 μg/kg i/p, OvA 1 μg/ml
[9] = OvA/FA, 1.0 μg/kg i/p, OvA 10 μg/ml
[10] = OvA/FA, 1.0 μg/kg i/p, OvA 25 μg/ml
[11] = OvA/FA, 1.0 μg/kg i/p, OvA 100 μg/ml
[12] = Healthy of group 3 after vaccination
[13] = Patients of group 2 (SCV-07 + vaccine), After vaccination

For N[C@H](CCC(=O)N[C@@H](Cc1c[nH]c2ccccc12)C(=O)O)C(=O)O [SCV-07, γ-D-glutamyl-L-tryptophan], which “Production of IL-2 by splenocytes, % (% of control)” value (“Production … (% of control)” below) ([1]; OvA/Alum, 1.0 μg/kg i/p, OvA 10 μg/ml) is on record?
The value was 148.1%.

What about the “Production of IL-2 by splenocytes” value [1, 2] of the same molecule?
Its value is 353.8 pg/mL.

And the “Production … (% of control)” value [1, 2]?
The value was 312.0%.

What about the “Production of IL-2 by splenocytes” value [1, 3] of the same molecule?
Its value is 205.8 pg/mL.

What about the “Production … (% of control)” value [1, 3] of the same molecule?
Its value is 181.5%.

And the “Production of IL-2 by splenocytes” value ([1]; OvA/Alum, 1.0 μg/kg per os, OvA 0 μg/ml)?
The value was 160.9 pg/mL.

What about the “Production of IL-2 by splenocytes” value ([1]; OvA/Alum, 1.0 μg/kg per os, OvA 1 μg/ml) of the same molecule?
The value was 92.8 pg/mL.

What about the “Production of IL-2 by splenocytes” value ([1]; OvA/Alum, 1.0 μg/kg per os, OvA 10 μg/ml) of the same molecule?
The value was 181.9 pg/mL.

And the “Production of IL-2 by splenocytes” value ([1]; OvA/Alum, 1.0 μg/kg per os, OvA 25 μg/ml)?
Its value is 121.3 pg/mL.

And the “Production of IL-2 by splenocytes” value ([1]; OvA/Alum, 1.0 μg/kg per os, OvA 100 μg/ml)?
Its value is 120.2 pg/mL.

And the “Production of IL-2 by splenocytes” value ([1]; OvA/Alum, 10.0 μg/kg per os, OvA 0 μg/ml)?
Its value is 289.4 pg/mL.

What about the “Production of IL-2 by splenocytes” value ([1]; OvA/Alum, 10.0 μg/kg per os, OvA 1 μg/ml) of the same molecule?
Its value is 551.9 pg/mL.

And the “Production of IL-2 by splenocytes” value ([1]; OvA/Alum, 10.0 μg/kg per os, OvA 10 μg/ml)?
The value was 252.5 pg/mL.

What about the “Production of IL-2 by splenocytes” value ([1]; OvA/Alum, 10.0 μg/kg per os, OvA 25 μg/ml) of the same molecule?
Its value is 218.7 pg/mL.

And the “Production of IL-2 by splenocytes” value ([1]; OvA/Alum, 10.0 μg/kg per os, OvA 100 μg/ml)?
Its value is 300.8 pg/mL.

What about the “Production of IL-2 by splenocytes” value ([1]; OvA/FA, 0.1 μg/kg i/p, OvA 0 μg/ml) of the same molecule?
Its value is 78.4 pg/mL.

And the “Production of IL-2 by splenocytes” value [1, 4]?
Its value is 10.2 pg/mL.

What about the “Production … (% of control)” value [1, 4] of the same molecule?
The value was 13.0%.

And the “Production of IL-2 by splenocytes” value [1, 5]?
Its value is 72.7 pg/mL.

And the “Production … (% of control)” value [1, 5]?
The value was 92.7%.

And the “Production of IL-2 by splenocytes” value [1, 6]?
Its value is 85.8 pg/mL.

What about the “Production … (% of control)” value [1, 6] of the same molecule?
The value was 109.4%.

And the “Production of IL-2 by splenocytes” value [1, 7]?
The value was 95.5 pg/mL.

What about the “Production … (% of control)” value [1, 7] of the same molecule?
The value was 121.8%.

What about the “Production of IL-2 by splenocytes” value ([1]; OvA/FA, 0.1 μg/kg per os, OvA 0 μg/ml) of the same molecule?
Its value is 211.8 pg/mL.

What about the “Production of IL-2 by splenocytes” value ([1]; OvA/FA, 0.1 μg/kg per os, OvA 1 μg/ml) of the same molecule?
The value was 68.7 pg/mL.

And the “Production of IL-2 by splenocytes” value ([1]; OvA/FA, 0.1 μg/kg per os, OvA 10 μg/ml)?
The value was 92.9 pg/mL.

What about the “Production of IL-2 by splenocytes” value ([1]; OvA/FA, 0.1 μg/kg per os, OvA 25 μg/ml) of the same molecule?
Its value is 252.5 pg/mL.

What about the “Production of IL-2 by splenocytes” value ([1]; OvA/FA, 0.1 μg/kg per os, OvA 100 μg/ml) of the same molecule?
Its value is 94.8 pg/mL.

What about the “Production of IL-2 by splenocytes” value ([1]; OvA/FA, 1.0 μg/kg i/p, OvA 0 μg/ml) of the same molecule?
The value was 147.7 pg/mL.

What about the “Production of IL-2 by splenocytes” value [1, 8] of the same molecule?
Its value is 116.5 pg/mL.

And the “Production … (% of control)” value [1, 8]?
Its value is 78.9%.

And the “Production of IL-2 by splenocytes” value [1, 9]?
Its value is 317.3 pg/mL.

What about the “Production … (% of control)” value [1, 9] of the same molecule?
The value was 214.8%.

What about the “Production of IL-2 by splenocytes” value [1, 10] of the same molecule?
Its value is 363.1 pg/mL.

And the “Production … (% of control)” value [1, 10]?
Its value is 245.8%.

And the “Production of IL-2 by splenocytes” value [1, 11]?
The value was 564.4 pg/mL.

What about the “Production … (% of control)” value [1, 11] of the same molecule?
Its value is 382.1%.

What about the “Production of IL-2 by splenocytes” value ([1]; OvA/FA, 1.0 μg/kg per os, OvA 0 μg/ml) of the same molecule?
The value was 122.4 pg/mL.

What about the “Production of IL-2 by splenocytes” value ([1]; OvA/FA, 1.0 μg/kg per os, OvA 1 μg/ml) of the same molecule?
The value was 82.7 pg/mL.

What about the “Production of IL-2 by splenocytes” value ([1]; OvA/FA, 1.0 μg/kg per os, OvA 10 μg/ml) of the same molecule?
Its value is 304.2 pg/mL.

And the “Production of IL-2 by splenocytes” value ([1]; OvA/FA, 1.0 μg/kg per os, OvA 25 μg/ml)?
The value was 152.9 pg/mL.

And the “Production of IL-2 by splenocytes” value ([1]; OvA/FA, 1.0 μg/kg per os, OvA 100 μg/ml)?
Its value is 282.8 pg/mL.

What about the “Production of IL-2 by splenocytes” value ([1]; OvA/FA, 10.0 μg/kg per os, OvA 0 μg/ml) of the same molecule?
Its value is 163 pg/mL.

What about the “Production of IL-2 by splenocytes” value ([1]; OvA/FA, 10.0 μg/kg per os, OvA 1 μg/ml) of the same molecule?
The value was 80.2 pg/mL.

What about the “Production of IL-2 by splenocytes” value ([1]; OvA/FA, 10.0 μg/kg per os, OvA 10 μg/ml) of the same molecule?
The value was 305.4 pg/mL.

And the “Production of IL-2 by splenocytes” value ([1]; OvA/FA, 10.0 μg/kg per os, OvA 25 μg/ml)?
Its value is 287.2 pg/mL.

What about the “Production of IL-2 by splenocytes” value ([1]; OvA/FA, 10.0 μg/kg per os, OvA 100 μg/ml) of the same molecule?
Its value is 478.2 pg/mL.

And the “Antibodies to HBsAg not detected, %” value (HBsAg; Group 2, SCV-07, n = 32)?
The value was 3.1** %.

What about the “Antibodies to HBsAg not detected, Abs” value (HBsAg; Group 2, SCV-07, n = 32) of the same molecule?
The value was 1.

What about the “Protective titer against HBsAg (>10 mMU/mL), %” value (HBsAg; Group 2, SCV-07, n = 32) of the same molecule?
Its value is 96.9%.

And the “Protective titer against HBsAg (>10 mMU/mL), Abs” value (HBsAg; Group 2, SCV-07, n = 32)?
The value was 31.

What about the “Antibodies to HBsAg not detected, %” value (HBsAg; Group 3, healthy, n = 33) of the same molecule?
The value was 6.1* %.

What about the “Antibodies to HBsAg not detected, Abs” value (HBsAg; Group 3, healthy, n = 33) of the same molecule?
Its value is 2.

What about the “Protective titer against HBsAg (>10 mMU/mL), %” value (HBsAg; Group 3, healthy, n = 33) of the same molecule?
The value was 93.9%.

And the “Protective titer against HBsAg (>10 mMU/mL), Abs” value (HBsAg; Group 3, healthy, n = 33)?
Its value is 31.

What about the “concentration of antibodies to HBsAg in the blood” value (HBsAg; healthy subjects (Group III)) of the same molecule?
Its value is 253.6 MU/L.

And the “concentration of antibodies to HBsAg in the blood” value (HBsAg; immunodeficient patients who received SCV-07 at the time of vaccination)?
Its value is 263.3 MU/L.

And the “CD3+ (%)” value (lymphocytes; [12])?
The value was 33.10 ± 1.88%.

And the “CD4+ (%)” value (lymphocytes; [12])?
Its value is 22.86 ± 1.94%.

What about the “CD4+/CD8+ conv. units” value (lymphocytes; [12]) of the same molecule?
The value was 1.203 ± 0.094 conv. units.

And the “CD8+ (%)” value (lymphocytes; [12])?
The value was 19.71 ± 1.53%.

What about the “CD16+ (%)” value (lymphocytes; [12]) of the same molecule?
The value was 15.19 ± 1.24%.

And the “CD95+ (%)” value (lymphocytes; [12])?
The value was 14.62 ± 1.60%.

And the “CD3+ (%)” value (lymphocytes; [13])?
Its value is 29.60 ± 2.41%.

What about the “CD4+ (%)” value (lymphocytes; [13]) of the same molecule?
The value was 20.13 ± 1.65%.

And the “CD4+/CD8+ conv. units” value (lymphocytes; [13])?
Its value is 1.111 ± 0.086 conv. units.

And the “CD8+ (%)” value (lymphocytes; [13])?
The value was 18.27 ± 1.01%.

What about the “CD16+ (%)” value (lymphocytes; [13]) of the same molecule?
The value was 13.07 ± 1.18%.

And the “CD95+ (%)” value (lymphocytes; [13])?
Its value is 12.60 ± 1.18%.
